# Test results from US20110098300A1, “Compounds Comprising A Cyclobutoxy Group” (UCB PHARMA, S.A., priority 2008, published 2011).
row,melting point [°C],SMILES
1,159.2 to 159.8,"CC(=O)N1CCN(C(=O)c2ccc(O[C@H]3C[C@H](N4CCCCC4)C3)cc2)CC1 [Compound 10, 1-acetyl-4-{4-[(trans-3-piperidin-1-ylcyclobutyl)oxy]benzoyl}piperazine]"
2,57.4 to 57.8,"O=C(c1ccc(O[C@H]2C[C@H](N3CCCCC3)C2)cc1)N1CCC(O)CC1 [Compound 5, 1-{4-[(trans-3-piperidin-1-ylcyclobutyl)oxy]benzoyl}piperidin-4-ol]"
3,135 to 136,"O=C(c1ccc(O[C@H]2C[C@H](N3CCCCC3)C2)cc1)N1CCOCC1 [Compound 1, 4-{4-[(trans-3-piperidin-1-ylcyclobutyl)oxy]benzoyl}morpholine]"
4,101.1 to 102.2,"O=C(c1ccc(O[C@H]2C[C@H](N3CCCCC3)C2)cc1)N1CCCCC1 [Compound 3, 1-{trans-3-[4-(piperidin-1-ylcarbonyl)phenoxy]cyclobutyl}piperidine]"
5,186.5 to 186.9,"O=C(c1ccc(O[C@H]2C[C@H](N3CCCCC3)C2)cc1)N1CCS(=O)(=O)CC1 [Compound 8, 4-{4-[(trans-3-piperidin-1-ylcyclobutyl)oxy]benzoyl}thiomorpholine 1,1-dioxide]"
6,151.6,"O=C(Nc1cnccc1Cl)c1ccc(O[C@H]2C[C@H](N3CCCCC3)C2)cc1 [Compound 12, N-(4-chloropyridin-3-yl)-4-[(trans-3-piperidin-1-ylcyclobutyl)oxy]benzamide]"
7,115.2 to 115.8,"O=C(c1ccc(O[C@H]2C[C@H](N3CCCCC3)C2)cc1)N1CCC(F)(F)C1 [Compound 9, 1-(trans-3-{4-[(3,3-difluoropyrrolidin-1-yl)carbonyl]phenoxy}cyclobutyl)piperidine]"
8,152.9 to 153.4,"O=C(NCC(F)(F)F)c1ccc(O[C@H]2C[C@H](N3CCCCC3)C2)cc1 [Compound 13, 4-[(trans-3-piperidin-1-ylcyclobutyl)oxy]-N-(2,2,2-trifluoroethyl)benzamide]"
9,145 to 146,"O=C(c1ccc(O[C@H]2C[C@H](N3CCCCC3)C2)cc1)N1CCC(F)(F)CC1 [Compound 2, 4,4-difluoro-1-{4-[(trans-3-piperidin-1-ylcyclobutyl)oxy]benzoyl}piperidine]"
10,98.5 to 99,"CC(C)N1CCN(C(=O)c2ccc(O[C@H]3C[C@H](N4CCCCC4)C3)cc2)CC1 [Compound 4, 1-isopropyl-4-{4-[(trans-3-piperidin-1-ylcyclobutyl)oxy]benzoyl}piperazine]"
11,82.2 to 82.4,"O=C(c1ccc(O[C@H]2C[C@H](N3CCCCC3)C2)cc1)N1CC(O)C1 [Compound 11, 1-{4-[(trans-3-piperidin-1-ylcyclobutyl)oxy]benzoyl}azetidin-3-ol]"
